Assay results reported in patent US20250152584A1, “NLRP3 INFLAMMASOME INHIBITOR AND USES THEREOF” (TransThera Sciences (Nanjing), Inc., priority 2022, published 2025).

Experiments:
[1] = Pharmacokinetic study in C57BL/6J mice; assay type: in vivo; conditions: mouse, plasma, C57BL/6J female mice; for Tmax: median, read-out: Tmax po (peak time of plasma concentration); for Cmax: read-out: Cmax po (peak concentration); for clearance: read-out: Cl—obs iv (clearance rate) (converted); for Vd: read-out: Vss iv (volume of distribution); for bioavailability: iv 5 mg/kg / po 10 mg/kg, read-out: F % (absolute bioavailability)
Description: Experimental Example 2: Pharmacokinetic Study of Compounds in C57BL/6J Mice
Compound 100, Compound 54, Compound 174, Compound 179, and Compound 253 were prepared into solutions with a mixed solvent formulated from 5% dimethyl sulfoxide, 20% (30% solutol) and 75% normal saline, respectively; the solution of each compound was administered to C57BL/6J female mice by gavage at a dose of 10 mg/kg; and the time points for blood collection were: 15 min, 30 min, 1 h, 2 h, 4 h, 6 h, 8 h and 24 h. The solution of the compound was administered to C57BL/6J female mice by intravenous bolus at a dose of 5 mg/kg, and the time points for blood collection were as follows: 5 min, 15 min, 30 min, 1 h, 2 h, 4 h, 6 h, 8 h, and 24 h.
Compound 1 was prepared into a solution with a mixed solvent formulated from 5% DME, 20% (30% solutol) and 75% normal saline; the solution of this compound was administered to C57BL/6J female mice by gavage at a dose of 10 mg/kg, and the time points for blood collection were: 15 min, 30 min, 1 h, 2 h, 4 h, 6 h, 8 h, and 24 h. The solution of the compound was administered to C57BL/6J female mice by intravenous bolus at a dose of 5 mg/kg, and the time points for blood collection were as follows: 5 min, 15 min, 30 min, 1 h, 2 h, 4 h, 6 h, 8 h, and 24 h.
Compound 195 was prepared into a solution with a mixed solvent formulated from 5% dimethyl sulfoxide, 20% PEG400 and 75% normal saline; the solution of this compound was administered to C57BL/6J female mice by gavage at a dose of 10 mg/kg; and the time points for blood collection were 15 min, 30 min, 1 h, 2 h, 4 h, 6 h, 8 h, and 24 b. The solution of the compound was administered to C57BL/6J female mice by intravenous bolus at a dose of 5 mg/kg, and the time points for blood collection were as follows: 5 min, 15 min, 30 min, 1 h, 2 b, 4 h, 6 h, 8 h, and 24 h.
(§1) Approximately 100 μL of blood was collected through the retroorbital venous plexus, and was then placed in an anticoagulant tube containing EDTA-K2. Blood samples were centrifuged at 12,000 rpm for 10 min at 4° C. to obtain plasma samples, and plasma was prepared within 30 min after blood collection. The plasma was stored in a −80° C. freezer before testing.
• 1. The samples were taken from the −80° C. freezer, thawed naturally at room temperature, and then vortexed for 5 min • 2. 10 μL of a plasma sample was precisely pipetted from different individuals into a 1.5 mL centrifuge tube. • 3. 300 μL of an internal standard working solution (the acetonitrile solution of tolbutamide) at a concentration of […] was added and mixed well. • 4. After vortexing for 5 min, the mixture was centrifuged at 12,000 rpm for 5 min. • 5. 50 μL of the supernatant was accurately pipetted into a 96-well plate preloaded with water at 150 μL/well. • 6. Vortexing was performed for 5 min for sufficient mixing, and LC-MS/MS analysis was then conducted.
(§2) The results of the concentrations of the compounds under test were output using Analyst 1.6.3 of AB. Parameters such as mean, standard deviation, coefficient of variation was calculated by Microsoft Excel (parameters directly output by Analyst 1.6.3 needed no calculation), and PK parameters were calculated by WinNonlin Phenoix 8.2 software NCA (Tmax as the median).

[2] = Pharmacokinetic study in SD male rats; assay type: in vivo; conditions: rat, plasma; for clearance: read-out: Cl—obs iv (clearance rate) (converted); for Vd: read-out: Vss iv (volume of distribution); for bioavailability: iv 1.0 mg/kg / po 5.0 mg/kg, read-out: F % (absolute bioavailability); for Tmax: median, read-out: Tmax po (peak time of plasma concentration); for Cmax: read-out: Cmax po (peak concentration)
Description: Experimental Example 3: Pharmacokinetic Study of Compounds in SD Male Rats
Compound 54, Compound 55, Compound 174, Compound 173, and Compound 264 were prepared into solutions with a mixed solvent formulated from 5% dimethyl sulfoxide, 20% (30% solutol) and 75% normal saline, respectively; the solution of each compound was administered to SD male rats by gavage at a dose of 5.0 mg/kg; and the time points for blood collection were: 15 min, 30 min, 1 h, 2 h, 4 h, 6 h, 8 h, 10 h and 24 h. The solution of the compound was administered to male SD rats by intravenous bolus at a dose of 1.0 mg/kg, and the time points for blood collection were as follows: 5 min, 15 min, 30 min, 1 h, 2 h, 4 h, 6 h, 8 h, 10 h, and 24 h.
as §1, with “On the day before administration, the jugular vein of each animal was cannulated; and after administration, about 300” for “Approximately 100”, “jugular vein,” for “retroorbital venous plexus,”, “and” for “and was”
• 1. The samples were taken from the −80° C. freezer, thawed naturally at room temperature, and then vortexed for 5 min. • 2. 30 μL of a plasma sample was precisely pipetted into a 1.5 mL centrifuge tube. • 3. 750 μL of an internal standard working solution (the acetonitrile solution of tolbutamide) at a concentration of […] was added and mixed well. • 4. After vortexing for 5 min, the mixture was centrifuged at 12,000 rpm for 5 min. • 5. 50 μL of the supernatant was accurately pipetted into a 96-well plate preloaded with water at 150 μL/well. • 6. Vortexing was performed for 5 min for sufficient mixing, and LC-MS/MS analysis was then conducted.
as §2

[3] = po, gavage 10 mg/kg, read-out: AUClast po (area under the drug-time curve for 0-24 h)
[4] = po, gavage 10 mg/kg, read-out: tz1/2 po (terminal elimination half-life) (converted)
[5] = intravenous bolus 5 mg/kg, read-out: AUClast iv (area under the drug-time curve for 0-24 h)
[6] = intravenous bolus 5 mg/kg, read-out: tz1/2 iv (terminal elimination half-life) (converted)
[7] = intravenous bolus 1.0 mg/kg, read-out: AUClast iv (area under the drug-time curve for 0-24 h)
[8] = intravenous bolus 1.0 mg/kg, read-out: tz1/2 iv (terminal elimination half-life) (converted)
[9] = po, gavage 5.0 mg/kg, read-out: AUClast po (area under the drug-time curve for 0-24 h)
[10] = po, gavage 5.0 mg/kg, read-out: tz1/2 po (terminal elimination half-life) (converted)

| Tmax ([1]; po, gavage 10 mg/kg) [h] | AUC(0-t) [1, 3] [ng·h/mL] | Cmax ([1]; po, gavage 10 mg/kg) [ng/mL] | half-life [1, 4] [h] | AUC(0-t) [1, 5] [ng·h/mL] | clearance ([1]; intravenous bolus 5 mg/kg) [mL/min/kg] | Vd ([1]; intravenous bolus 5 mg/kg) [L/kg] | half-life [1, 6] [h] | bioavailability [1] [%] | AUC(0-t) [2, 7] [ng·h/mL] | clearance ([2]; intravenous bolus 1.0 mg/kg) [mL/min/kg] | Vd ([2]; intravenous bolus 1.0 mg/kg) [L/kg] | half-life [2, 8] [h] | bioavailability [2] [%] | Tmax ([2]; po, gavage 5.0 mg/kg) [h] | AUC(0-t) [2, 9] [ng·h/mL] | Cmax ([2]; po, gavage 5.0 mg/kg) [ng/mL] | half-life [2, 10] [h] | Compound |
| --- | --- | --- | --- | --- | --- | --- | --- | --- | --- | --- | --- | --- | --- | --- | --- | --- | --- | --- |
| – | – | – | – | – | – | – | – | – | 5130 | 3.17 | 1.12 | 5.24 | 163 | 2 | 38500 | 3050 | 7.18 | C#Cc1ccc(-c2nnc(N[C@H]3C[C@@](C)(O)C3)cc2C)c(O)c1 [Compound 55, 5-ethynyl-2-(6-(((cis)-3-hydroxyl-3-methylcyclobutyl)amino)-4-methylpyridazin-3-yl)phenol] |
| – | – | – | – | – | – | – | – | – | 1100 | 14.3 | 6.92 | 6.13 | 85.6 | 4 | 4690 | 395 | 5.72 | C#Cc1ccc(-c2nnc(N[C@@H]3CCCN(C)C3)cc2C2CC2)c(O)c1 [Compound 173, (R)-2-(4-cyclopropyl-6-((1-methylpiperidin-3-yl)amino)pyridazin-3-yl)-5-ethynylphenol] |
| 0.5 | 3860 | 1120 | 2.19 | 2470 | 32.8 | 5.14 | 2.01 | 79.2 | – | – | – | – | – | – | – | – | – | C#Cc1ccc(-c2nnc(N[C@@H]3CCCN(C)C3)nc2C2CC2)c(O)c1 [Compound 179, (R)-2-(5-cyclopropyl-3-((1-methylpiperidin-3-yl)amino)-1,2,4-triazin-6-yl)-5-ethynylphenol] |
| 0.5 | 6900 | 2320 | 3.49 | 3200 | 25.5 | 2.76 | 1.5 | 106 | – | – | – | – | – | – | – | – | – | C#Cc1ccc(-c2nnc(N[C@@H]3CCCN(CCO)C3)cc2C)c(O)c1 [Compound 253, (R)-5-ethynyl-2-(6-((1-(2-hydroxyethyl)piperidin-3-yl)amino)-4-methylpyridazin-3-yl)phenol] |

Further lines, the compound ahead of its results:

| Compound | Tmax ([1]; po, gavage 10 mg/kg) [h] | AUC(0-t) [1, 3] [ng·h/mL] | Cmax ([1]; po, gavage 10 mg/kg) [ng/mL] | half-life [1, 4] [h] | AUC(0-t) [1, 5] [ng·h/mL] | clearance ([1]; intravenous bolus 5 mg/kg) [mL/min/kg] | Vd ([1]; intravenous bolus 5 mg/kg) [L/kg] | half-life [1, 6] [h] | bioavailability [1] [%] | AUC(0-t) [2, 7] [ng·h/mL] | clearance ([2]; intravenous bolus 1.0 mg/kg) [mL/min/kg] | Vd ([2]; intravenous bolus 1.0 mg/kg) [L/kg] | half-life [2, 8] [h] | bioavailability [2] [%] | Tmax ([2]; po, gavage 5.0 mg/kg) [h] | AUC(0-t) [2, 9] [ng·h/mL] | Cmax ([2]; po, gavage 5.0 mg/kg) [ng/mL] | half-life [2, 10] [h] |
| --- | --- | --- | --- | --- | --- | --- | --- | --- | --- | --- | --- | --- | --- | --- | --- | --- | --- | --- |
| C#Cc1ccc(-c2nnc(N[C@@H]3CCCN(C)C3)c3c2CCCC3)c(O)c1 [Compound 1, (R)-5-ethynyl-2-(4-((1-methylpiperidin-3-yl)amino)-5,6,7,8-tetrahydrophthalazin-1-yl)phenol] | 0.25 | 1890 | 428 | 3 | 1820 | 44 | 5.22 | 3.85 | 49.9 | – | – | – | – | – | – | – | – | – |
| C#Cc1ccc(-c2nnc(N[C@@H]3CCCN(C)C3)c3ccccc23)c(O)c1 [Compound 100, (R)-5-ethynyl-2-(4-((1-methylpiperidin-3-yl)amino)phthalazin-1-yl)phenol] | 2 | 10100 | 1530 | 2.76 | 6360 | 13.1 | 3.16 | 3.04 | 79.4 | – | – | – | – | – | – | – | – | – |
| CC#Cc1ccc(-c2nnc(N[C@@H]3CCCN(C)C3)cc2C2CC2)c(O)c1 [Compound 264, (R)-2-(4-cyclopropyl-6-((1-methylpiperidin-3-yl)amino)pyridazin-3-yl)-5-(propyl-1-alkyn-1-yl)phenol] | – | – | – | – | – | – | – | – | – | 811 | 17.5 | 12.5 | 8.89 | 72.8 | 4 | 3120 | 230 | 7.26 |
